Test system: German cockroaches
Experiment: Second series of evaluations: pyriproxyfen and novaluron alone and in combination on three substrates
Type: in vivo
Settings: preliminary results
Description: Ceramic tile, vinyl tile, and unpainted plywood panels measuring 6″×6″ were cleaned using soapy water to remove any residue left over from the manufacturing process and left to dry overnight. Six (6) L plastic storage boxes (Sterlite®) with lids were purchased from a local hardware store (Home Depot, Riverbank, Calif.) and cleaned as well and allowed to dry. Each substrate was treated with 0.95 mL of test material (1 gallon/1,000 ft^2 equivalent) prepared in accordance with Example 1 using a Pipetteman 1000, with the material being evenly distributed over the entire surface of the substrate using an acid brush. The material was allowed to dry and the substrates were placed into the plastic storage boxes, one per box. A 5 cm Petri dish was filled with dog food and a slice of orange for nourishment, and a water tube was added for moisture. The food dish was placed directly on the treated substrate to force exposure of the cockroaches. A 6″ rolled piece of corrugated cardboard was placed in each replicate for harborage. A thin layer of petroleum jelly/mineral oil was applied to the rim to prevent escape.
Approximately forty (40) second and third instar nymphs were placed in each replicate and the lid was placed on top. Five replicates were prepared, one for each of the four treatments set forth in Table 2 and an untreated control. […]

Structure (SMILES)	Molting abnormalities of mid-instar cockroaches (all three substrates)	Morphological characteristics of juvenoid activity (individuals alive in these treatment groups)
O=C(NC(=O)c1c(F)cccc1F)Nc1ccc(OC(F)(F)C(F)OC(F)(F)F)c(Cl)c1 (racemic) [novaluron, (RS)-1-[3-chloro-4-(1,1,2-trifluoro-2-trifluoromethoxyethoxy)phenyl]-3-(2,6-difluorobenzoyl)urea]	molting abnormalities	
CC(COc1ccc(Oc2ccccc2)cc1)Oc1ccccn1 (centres unmarked) [pyriproxyfen, 4-phenoxyphenyl 2-(2-pyridyloxy)propyl ether]		twisted wings and darkened cuticle
